How the values were obtained:
[1] = Cytotoxicity against human OVCAR5 cells assessed as cell growth at 10^-4 M after 24 hrs by SRB assay; type: functional; settings: OVCAR-5, 24 h, read-out: Activity
NCI-H522 = assay: Cytotoxicity against human NCI-H522 cells assessed as cell growth at 10^-7 M after 24 hrs by SRB assay; type: functional; settings: NCI-H522, 24 h, read-out: Activity
[2] = Cytotoxicity against human BT549 cells assessed as cell growth at 10^-4 M after 24 hrs by SRB assay; type: functional; settings: BT-549, 24 h, read-out: Activity
[3] = Cytotoxicity against human UACC62 cells after 24 hrs by SRB assay; type: functional, cell-based; settings: UACC-62, 24 h
SK-MEL-5 [4] = assay: Cytotoxicity against human SK-MEL-5 cells after 24 hrs by SRB assay; type: functional, cell-based; settings: SK-MEL-5, 24 h
[5] = Cytotoxicity against human SNB19 cells assessed as cell growth at 10^-4 M after 24 hrs by SRB assay; type: functional; settings: SNB-19, 24 h, read-out: Activity
[6] = Cytotoxicity against human IGROV1 cells assessed as cell growth at 10^-8 M after 24 hrs by SRB assay; type: functional; settings: IGROV-1, 24 h, read-out: Activity
SK-MEL-5 [7] = assay: Cytotoxicity against human SK-MEL-5 cells assessed as cell growth at 10^-4 M after 24 hrs by SRB assay; type: functional; settings: SK-MEL-5, 24 h, read-out: Activity
[8] = Cytotoxicity against human NCI-ADR-RES cells assessed as cell growth at 10^-4 M after 24 hrs by SRB assay; type: functional; settings: read-out: Activity
[9] = Cytotoxicity against human Hs 578T cells assessed as cell growth at 10^-7 M after 24 hrs by SRB assay; type: functional; settings: read-out: Activity
[10] = Cytotoxicity against human SF539 cells assessed as cell growth at 10^-7 M after 24 hrs by SRB assay; type: functional; settings: SF-539, 24 h, read-out: Activity
[11] = Cytotoxicity against human NCI-ADR-RES cells after 24 hrs by SRB assay; type: functional
[12] = Cytotoxicity against human UACC257 cells assessed as cell growth at 10^-8 M after 24 hrs by SRB assay; type: functional; settings: UACC-257, 24 h, read-out: Activity
SK-MEL-2 = assay: Cytotoxicity against human SK-MEL-2 cells assessed as cell growth at 10^-4 M after 24 hrs by SRB assay; type: functional; settings: SK-MEL-2, 24 h, read-out: Activity
[13] = Cytotoxicity against human DU145 cells assessed as cell growth at 10^-7 M after 24 hrs by SRB assay; type: functional; settings: DU-145, 24 h, read-out: Activity
[14] = Cytotoxicity against human NCI-ADR-RES cells assessed as cell growth at 10^-6 M after 24 hrs by SRB assay; type: functional; settings: read-out: Activity
M14 [15] = assay: Cytotoxicity against human M14 cells assessed as cell growth at 10^-4 M after 24 hrs by SRB assay; type: functional; settings: M14, 24 h, read-out: Activity
SR [16] = assay: Cytotoxicity against human SR cells assessed as cell growth at 10^-6 M after 24 hrs by SRB assay; type: functional; settings: read-out: Activity
[17] = Cytotoxicity against human RPMI8226 cells assessed as cell growth at 10^-5 M after 24 hrs by SRB assay; type: functional; settings: RPMI-8226, 24 h, read-out: Activity
NCI-H322M = assay: Cytotoxicity against human NCI-H322M cells after 24 hrs by SRB assay; type: functional
A549 = assay: Cytotoxicity against human A549 cells assessed as cell growth at 10^-6 M after 24 hrs by SRB assay; type: functional; settings: A549, 24 h, read-out: Activity
MDA-MB-231 [18] = assay: Cytotoxicity against human MDA-MB-231 cells assessed as cell growth at 10^-7 M after 24 hrs by SRB assay; type: functional; settings: MDA-MB-231, 24 h, read-out: Activity
M14 [19] = assay: Cytotoxicity against human M14 cells assessed as cell growth at 10^-7 M after 24 hrs by SRB assay; type: functional; settings: M14, 24 h, read-out: Activity
MDA-MB-231 [20] = assay: Cytotoxicity against human MDA-MB-231 cells after 24 hrs by SRB assay; type: functional, cell-based; settings: MDA-MB-231, 24 h
[21] = Cytotoxicity against human Caki1 cells assessed as cell growth at 10^-8 M after 24 hrs by SRB assay; type: functional; settings: CAKI-1, 24 h, read-out: Activity
U-251 = assay: Cytotoxicity against human U251 cells assessed as cell growth at 10^-7 M after 24 hrs by SRB assay; type: functional; settings: U-251, 24 h, read-out: Activity
[22] = Cytotoxicity against human MOLT4 cells after 24 hrs by SRB assay; type: functional; settings: MOLT-4, 24 h
SK-MEL-28 = assay: Cytotoxicity against human SK-MEL-28 cells assessed as cell growth at 10^-6 M after 24 hrs by SRB assay; type: functional; settings: SK-MEL-28, 24 h, read-out: Activity
[23] = Cytotoxicity against human SW620 cells after 24 hrs by SRB assay; type: functional; settings: SW-620, 24 h
[24] = Cytotoxicity against human NCI-ADR-RES cells assessed as cell growth at 10^-5 M after 24 hrs by SRB assay; type: functional; settings: read-out: Activity
[25] = Cytotoxicity against human HL-60(TB) cells assessed as cell growth at 10^-7 M after 24 hrs by SRB assay; type: functional; settings: HL-60, 24 h, read-out: Activity
SR [26] = assay: Cytotoxicity against human SR cells assessed as cell growth at 10^-8 M after 24 hrs by SRB assay; type: functional; settings: read-out: Activity
[27] = Cytotoxicity against human SNB75 cells assessed as growth inhibition at 10 uM after 24 hrs by SRB assay; type: functional; settings: SNB-75, 24 h, read-out: GI
[28] = read-out: LC50 (the source's name)
[29] = read-out: pLC50 (the source's name) (converted)

Compound: O=C(Nc1cc(-c2cccnc2)nc(NCCCN2CCOCC2)n1)c1cc(Br)cc(C(F)(F)F)c1
- growth at 100 µM [1]: -67%
- growth at 0.1 µM (NCI-H522): 92%
- growth at 100 µM [2]: -86%
- GI50 [3]: 1.95 µM
- CC50 [3, 28]: 9.92 µM
- TGI ([3]; read-out: TGI): 4.38 µM
- CC50 [3, 29]: 10 µM
- TGI ([3]; read-out: pTGI (converted)): 4.37 µM
- IC50 (SK-MEL-5 [4]): 1.62 µM
- GI50 (SK-MEL-5 [4]; read-out: GI50): 1.64 µM
- CC50 (SK-MEL-5 [4]; [28]): 5.56 µM
- TGI (SK-MEL-5 [4]; read-out: TGI): 3.02 µM
- GI50 (SK-MEL-5 [4]; read-out: pGI50 (converted)): 1.66 µM
- CC50 (SK-MEL-5 [4]; [29]): 5.62 µM
- TGI (SK-MEL-5 [4]; read-out: pTGI (converted)): 3.02 µM
- growth at 100 µM [5]: -84%
- growth at 0.01 µM [6]: 103%
- growth at 100 µM (SK-MEL-5 [7]): -100%
- growth at 100 µM [8]: -77%
- growth at 0.1 µM [9]: 94%
- growth at 0.1 µM [10]: 87%
- GI50 ([11]; read-out: GI50): 2.6 µM
- CC50 [11, 28]: 42.9 µM
- TGI ([11]; read-out: TGI): 9.11 µM
- GI50 ([11]; read-out: pGI50 (converted)): 2.57 µM
- CC50 [11, 29]: 42.7 µM
- TGI ([11]; read-out: pTGI (converted)): 9.12 µM
- growth at 0.01 µM [12]: 92%
- growth at 100 µM (SK-MEL-2): -89%
- growth at 0.1 µM [13]: 105%
- growth at 1 µM [14]: 88%
- growth at 100 µM (M14 [15]): -71%
- growth at 1 µM (SR [16]): 85%
- growth at 10 µM [17]: -1%
- GI50 (NCI-H322M; read-out: GI50): 3.72 µM
- CC50 (NCI-H322M; [28]): 43.2 µM
- TGI (NCI-H322M; read-out: TGI): 15 µM
- GI50 (NCI-H322M; read-out: pGI50 (converted)): 3.72 µM
- CC50 (NCI-H322M; [29]): 43.7 µM
- TGI (NCI-H322M; read-out: pTGI (converted)): 15.1 µM
- growth at 1 µM (A549): 119%
- growth at 0.1 µM (MDA-MB-231 [18]): 87%
- growth at 0.1 µM (M14 [19]): 95%
- IC50 (MDA-MB-231 [20]): 1.79 µM
- GI50 (MDA-MB-231 [20]; read-out: GI50): 1.79 µM
- CC50 (MDA-MB-231 [20]; [28]): 8.65 µM
- TGI (MDA-MB-231 [20]; read-out: TGI): 3.93 µM
- GI50 (MDA-MB-231 [20]; read-out: pGI50 (converted)): 1.78 µM
- CC50 (MDA-MB-231 [20]; [29]): 8.71 µM
- TGI (MDA-MB-231 [20]; read-out: pTGI (converted)): 3.89 µM
- growth at 0.01 µM [21]: 99%
- growth at 0.1 µM (U-251): 97%
- GI50 ([22]; read-out: GI50): 3.63 µM
- CC50 [22, 28]: 59.6 µM
- TGI ([22]; read-out: TGI): 13.1 µM
- GI50 ([22]; read-out: pGI50 (converted)): 3.63 µM
- CC50 [22, 29]: 60.3 µM
- TGI ([22]; read-out: pTGI (converted)): 13.2 µM
- growth at 1 µM (SK-MEL-28): 89%
- GI50 ([23]; read-out: GI50): 2.25 µM
- CC50 [23, 28]: 20.1 µM
- TGI ([23]; read-out: TGI): 5.48 µM
- GI50 ([23]; read-out: pGI50 (converted)): 2.24 µM
- CC50 [23, 29]: 20 µM
- TGI ([23]; read-out: pTGI (converted)): 5.62 µM
- growth at 10 µM [24]: -4%
- growth at 0.1 µM [25]: 96%
- growth at 0.01 µM (SR [26]): 106%

Compound: COCCCNc1nc(NC(=O)c2cc(OC)cc(OC)c2)cc(-c2cccnc2)n1
- inhibition of growth at 10 µM [27]: 26.9%
